Earlier results on three compounds are cited in article PMC9037210, “Novel 3-(6-methylpyridin-2-yl)coumarin-based chalcones as selective inhibitors of cancer-related carbonic anhydrases IX and XII endowed with anti-proliferative activity” (Journal of Enzyme Inhibition and Medicinal Chemistry, 2022).

One data set has as its target T1, hCA I (Homo sapiens, UniProt P00915).
T1 construct: made in house
The following applies: Figure 1; read-out: hCA I inhibition; cited from earlier work.

In a further data set the target is T2, hCA II (Homo sapiens, UniProt P00918).
T2 construct: made in house
Particulars: Figure 1; read-out: hCA II inhibition; cited from earlier work.

The target of another data set is T3, hCA IX (Homo sapiens, UniProt Q16790).
T3 construct: made in house
The following applies: Figure 1; read-out: hCA IX inhibition; cited from earlier work.

T1 sequence (P00915 whole entry): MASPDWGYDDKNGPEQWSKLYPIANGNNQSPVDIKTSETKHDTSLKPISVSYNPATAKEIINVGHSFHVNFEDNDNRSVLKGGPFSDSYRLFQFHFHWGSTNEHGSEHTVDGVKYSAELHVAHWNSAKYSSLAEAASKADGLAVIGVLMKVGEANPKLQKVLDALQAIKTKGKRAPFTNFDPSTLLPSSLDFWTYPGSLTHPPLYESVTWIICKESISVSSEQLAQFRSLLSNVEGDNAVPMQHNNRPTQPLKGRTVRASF

`O=C(Nc1ccc(Cl)cc1)c1cc2ccc(O)cc2oc1=O` [IV]: the Ki on hCA I and on hCA II was above 100 µM throughout.

As to `O=c1ccc2cc(O)ccc2o1` [III], the Ki on hCA I and on hCA II was above 100 µM throughout.

As to `O=Cc1ccccc1OCc1cn(CCCOc2ccc3ccc(=O)oc3c2)nn1` [V], the Ki was above 10 µM at hCA I and 0.13 µM on hCA IX.
